Data as given in US9655968B2, “Baclofen solution for low-volume therapeutic delivery” (Wayne State University, priority 2007, dated 2017).
In brackets after ≈: the same amount, converted by molar mass. Where two headings read alike, the source gives them in different places.

Columns and labels:
[1] = Baclofen solubilization study in multivalent physiologic ion (MPI) solution; format: physicochemical; conditions: aqueous buffer, thermodynamic from solid
Description: Multivalent physiologic ion solution formation. A solution (A) is produced with 8.66 g NaCl, 0.224 g KCl, 0.206 g CaCl2.2H2O and 0.163 g MgCl2.6H2O dissolving in 500 mL of deionized water. A solution (B) is produced with 0.214 g Na2HPO4.7H2O and 0.027 g NaH2PO4.H2O dissolving in 450 mL of water. The pH is adjusted to 6.0, 6.5, 7.0, 7.3, 7.6 and 8.0 as necessary with either NaOH or H3PO4 and dilution to final volume of 500 mL with deionized water. A final multivalent physiologic ion solution is obtained by mixing equal parts of Solution A and B. pH is tested and adjusted to the desired final pH if necessary. All reagents are available from sources known in the art. […]
Baclofen solubilization study in multivalent physiologic ion solution. […] The aliquots are analyzed by high performance liquid chromatography (HPLC). […] Baclofen concentrations above 4 mg/ml are readily achieved.
Analyses of baclofen solutions to confirm concentrations. Baclofen concentrations of Examples 2 and 3 are determined to confirm soluble levels in MPI or aCSF in the inventive solutions. Baclofen concentrations are quantified by LC/MS/MS using an Applied Biosystems API 400 electrospray triple quadrupole mass spectrometer. […] The transition between 214.1 and 151.2 is used for quantification. […]
Analyses of baclofen solutions to confirm concentrations. […] Baclofen concentrations are determined within 10% of expected values.

[2] = over a 10-year period, near neutral pH, room temperature; calculated, Ahuja 1985; cited from earlier work
[3] = cited from earlier work
[4] = LIORESAL INTRATHECAL product insert

NCC(CC(=O)O)c1ccc(Cl)cc1 (stereo not shown) [Baclofen]
solubility ([1]; MPI pH 6.0-8.0, 37° C., aliquots at 2, 5 and 30 min, HPLC, read-out: baclofen concentration achieved in MPI solution): > 4000 µg/mL
solubility ([1]; rapidly achieved without sonication or excessive agitation, read-out: solubility of baclofen in MPI solution): 6000 µg/mL (≈ 28.1 mM)
degradation of dissolved baclofen [2]: less than 10%
solubility in chloroform [3, 4]: insoluble
solubility in methanol [3, 4]: very slightly soluble
solubility in water [3, 4]: slightly soluble
solubility in aqueous saline solution after extreme heating and intense agitation ([3]; heating to as much as 100° C., sonication or high speed stirring, US 2006/0009523): ≤ 12000 µg/mL
baclofen concentration by acid dissolution and back titration method ([3]; initial dissolution at pH below 3.87, then base added, US 2006/0009523): ~10 mg/mL
maximum saline concentration ([3]; saline): 2 mg/mL
solubility in water or saline (known in the art) ([3]; water or saline): below 2 mg/mL
